The values that follow come from patent US10729770B2, “Bacterial influence on regulation of appetite via ClpB protein mimicry of alpha-MSH” (priority 2013, dated 2020).

Test [1] can be described thus: ClpB immunization in mice: body weight, food intake and feeding pattern (BioDAQ cages). The format is in vivo. On the procedure: All experimental protocols were conducted according to US National Institutes of Health guidelines and EU directives, and animal experiments were approved by the Institutional Ethical Committees. Two-month-old male C57BI6 mice (Janvier Laboratories, L'Arbresle, France) were acclimated to the animal facility for 1 week with 12 h light-dark cycle, lights on at 0700 hours and were kept in standard mouse-holding cages (n=8) each. Mice were fed ad libitum with standard pelleted rodent chow (RM1 diet, SDS, UK) with drinking water always available and were manipulated daily by gentle holding and measuring body weight. During acclimatization, mice were distributed between four cages to obtain the similar mean body weight per mouse per cage. After 1 week of acclimatization, mice from each cage were assigned to one of four study group and received following treatments: (i) Group 1, ClpB immunization (n=8): ClpB protein (Delphi Genetics, Gosselies, Belgium) 50 μg per mouse in 200 μl of 1:1 (vol:vol) of PBS with Complete Freund's Adjuvant (Sigma, St Louis, Mo., USA), intraperitoneally (i.p.); (ii) Group 2, adjuvant injection controls (n=8): 200 μl of Complete Freund's Adjuvant in PBS (1:1 (vol:vol), i.p.); (iii) Group 3, PBS injection controls (n=8): 200 μl of PBS (i.p.); and (iv) Group 4, intact controls (n=8): received no injections, and then all mice were returned to their holding cages. Fifteen days later, mice were given a boost immunization and the following treatments: (i) Group 1 (n=8), ClpB protein (Delphi Genetics) 50 μg per mouse in 200 μl of 1:1 (vol:vol) of PBS with Incomplete Freund's Adjuvant (Sigma) i.p.; (ii) Group 2 (n=8): 200 μl of Incomplete Freund's Adjuvant in PBS (1:1 (vol:vol), i.p.); (iii) Group 3, (n=8): 200 μl of PBS (i.p.); and iv) Group 4, (n=8): received no injections. Next day after the boost, mice were placed individually into the BioDAQ mouse cages (Research Diets, Inc., New Brunswick, N.J., USA) each equipped with an automatic feeding monitor. Food (Serlab, Montataire France) and drinking water were available ad libitum and body weight was measured daily. After 3 days of acclimatization to the BioDAQ cages, mice received the following treatments: Groups 1, 2 and 3 (each n=8), that is, mice that have been immunized with ClpB, injected with adjuvants and with PBS, respectively, all received an acute injection of α-MSH peptide (Bachem AG), 100 μg·kg^−1 body weight in 100 μl of PBS (i.p.) at 1000 hours. The control mice (n=8) received PBS only (i.p.). Feeding data was continuously monitored and analyzed using the BioDAQ data viewer 2.3.07 (Research Diets). For the meal pattern analysis, the inter-meal interval was set at 300 s.

Test [2] is described as follows: Locomotor activity and anxiety tests (open field, elevated O-maze) in immunized mice. The format is in vivo. On the procedure: After the feeding study, mice were placed in individual mouse-holding cages with food and water available ad libitum, and were analyzed for locomotor activity and anxiety in 0-maze (Med Associate, Inc., St Albans, Vt., USA) tests performed during 2 consecutive days. Two hours after the 0-maze test, mice were killed by decapitation in a guillotine and trunk blood was collected into EDTA-containing tubes. Plasma was separated by centrifugation at 3500 r.p.m. ([…]) for 10 min at 4° C. and stored at −80° C. before assay.
After feeding study in the BioDAQ cages, mice were analyzed for locomotor activity using a Versamax Animal Activity Monitor (AccuScan Instruments, Inc., Columbus, Ohio, USA). Next day after the locomotor activity test, all mice were tested for their anxiety in an elevated O-maze. The elevated-O-maze is a variation of more commonly used elevated plusmaze pharmacologically validated for anxiety testing in rodents. The advantage of the O-maze is that it lacks the ambiguous central square of the traditional plus-maze. The O-maze consisted of a circular infrared platform (outer diameter 120 cm) elevated 80 cm above the floor, featuring two open and two closed segments made of gray plastic. The closed segments were enclosed by walls extending 20 cm above the surface of the maze and covered with a black infrared plexiglas lid. Each test started by placing the mouse into one of the two closed segments. The test lasted 5 min and was recorded using a video camera placed above the O-maze and the EthoVision video tracking software (Noldus IT, Wageningen, The Netherlands). Measurements of distance and time spent in the open and closed segments were analyzed. Between each mouse tests, the 0-maze was cleaned with 30% ethanol.

Test [3] concerns the target T1, α-MSH (Homo sapiens, UniProt P01189).
T1 construct: endogenous peptide hormone of the melanocortin family, with a tridecapeptide structure; purchased Bachem AG
The test is described as follows: ELISA of plasma auto-antibodies reacting with α-MSH. The format is in vivo. From the text:
(§1) Each determination was done in duplicate.
For orientation: ELISA stands for enzyme-linked immunosorbent assay.

Test [4] concerns the target T2, adrenocorticotropic hormone (Homo sapiens, UniProt P01189).
T2 construct: purchased Bachem AG
T2 sequence (P01189 138-176 limits assumed): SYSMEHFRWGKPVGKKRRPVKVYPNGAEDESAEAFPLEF
The test is described as follows: ELISA of plasma IgG reacting with adrenocorticotropic hormone. The format is in vivo. To be noted: ClpB immunization study.
From the text: as §1

Test [5] addresses T1, α-MSH. The test is described as follows: Affinity kinetics assay (surface plasmon resonance, BIAcore) of mouse IgG for α-MSH. Type of test: binding. To be noted: ClpB-immunized mice compared with controls. (SPR reads the build-up and loss of mass on a sensor chip optically.)
Description: (§2) IgG purification and affinity assay were performed according to a published protocol (Legrand et al., Protoc Exch 2014, doi:10.1038/protex2014.004). Extraction of plasma globulins was done by plasma acidification and separation on C18 SEP column (Phoenix Pharmaceuticals, Burlingame, Calif., USA), then 500 μl of mouse plasma was mixed with 500 μl of buffer A (1% trifluoroacetic acid in water). The column was activated in 1 ml of buffer B (60% acetonitrile in 1% trifluoroacetic acid) by 3 min centrifugation with 700 r.p.m. and rinsed three times with 3 ml of buffer A. Diluted plasma (1:1 in buffer A) was added to the column and the effluent (1 ml) was saved (frozen at −20° C.) for further purification of IgG. Total IgG were purified from the effluents of mouse plasma samples using the Melon Gel Kit (Thermo Fisher Scientific, Rockford, Ill., USA). Plasma effluents diluted 1:4 in kit's purification buffer was added on washed melon gel deposited in a column. Column was spun 1 min at 6000 r.p.m., and the IgG containing effluent was saved and frozen at −20° C. before lyophilization. […]
(§3) Between injections of each sample, the binding surface was regenerated with 10 mM NaOH, resulting in the same baseline level of the sensorgram. The affinity kinetic data were analyzed using BiaEvaluation 4.1.1 program (GE Healthcare). […]
A further test relates to anti-α-MSH IgG. Conditions: 20 and 10 μg of ClpB. On the procedure: Following 2D-PAGE, E. coli cytoplasmic proteins were transferred onto Hybond-ECL PVDF membrane (GE Healthcare) via a dry transfer method (Trans Blot Cell, Bio-Rad, USA) and a constant current of 0.8 mA.cm^−2 of the membrane size for 2 h. After transfer, membranes were blocked with 5% (wt:vol) milk (Regilait, France) in phosphate-buffered saline (PBS; 10 mmol·l^−1 […], and 150 mM·l^−1 NaCl) plus 0.05% (vol:vol) Tween 20.

In test [6] the target is T3, ClpB protein (Escherichia coli, UniProt P63284). To be noted: in vivo.
T3 sequence (P63284 whole entry): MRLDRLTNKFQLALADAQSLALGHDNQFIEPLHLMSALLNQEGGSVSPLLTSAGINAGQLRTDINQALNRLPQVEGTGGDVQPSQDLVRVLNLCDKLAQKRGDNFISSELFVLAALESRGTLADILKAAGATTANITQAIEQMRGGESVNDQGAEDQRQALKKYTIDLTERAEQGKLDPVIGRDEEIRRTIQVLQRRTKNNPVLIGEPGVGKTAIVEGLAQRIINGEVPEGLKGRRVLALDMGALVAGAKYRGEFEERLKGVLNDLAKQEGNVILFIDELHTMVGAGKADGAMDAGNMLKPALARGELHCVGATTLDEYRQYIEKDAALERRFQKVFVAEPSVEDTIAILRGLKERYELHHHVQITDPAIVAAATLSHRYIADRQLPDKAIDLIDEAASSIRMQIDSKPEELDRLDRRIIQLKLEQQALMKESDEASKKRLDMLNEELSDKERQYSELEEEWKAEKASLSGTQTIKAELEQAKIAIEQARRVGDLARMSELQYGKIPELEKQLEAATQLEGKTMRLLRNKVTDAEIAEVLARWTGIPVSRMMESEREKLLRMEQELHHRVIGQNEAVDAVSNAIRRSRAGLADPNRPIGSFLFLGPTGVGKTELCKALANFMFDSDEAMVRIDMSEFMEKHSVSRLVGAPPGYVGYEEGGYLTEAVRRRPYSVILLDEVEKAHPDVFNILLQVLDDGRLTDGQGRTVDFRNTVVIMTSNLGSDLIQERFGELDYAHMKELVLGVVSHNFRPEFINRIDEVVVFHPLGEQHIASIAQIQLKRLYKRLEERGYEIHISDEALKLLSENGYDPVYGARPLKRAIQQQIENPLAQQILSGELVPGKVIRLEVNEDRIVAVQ
Description: Plates were washed (5 min for three times) in PBS with 0.05% Tween 200, pH 7.4, and then incubated overnight at 4° C. with 100 μl of mouse plasma diluted 1:200 in PBS to determine free auto-Ab levels or diluted 1:200 in dissociative 3M NaCl and 1.5M glycine buffer, pH 8.9, to determine total auto-Ab levels. The plates were washed (three times) and incubated with 100 μl of alkaline phosphatase (AP)-conjugated goat antimouse IgG (1:2000) or anti-mouse IgM (1:1000), all obtained from Jackson ImmunoResearch Laboratories, Inc. (West Grove, Pa., USA). Following washing (three times), 100 μl of p-nitrophenyl phosphate solution (Sigma) was added as AP substrate. After 40 min of incubation at room temperature, the reaction was stopped by adding 3 N NaOH. The optical density was determined at 405 nm using a microplate reader Metertech 960 (Metertech Inc., Taipei, Taiwan). Blank optical density values resulting from the reading of plates without addition of plasma samples were subtracted from the sample optical density values. Each determination was done in duplicate.
IgG and IgM antibodies reactive with ClpB were detected by enzyme-linked immunosorbent assay using corresponding anti-mouse or anti-human AP-conjugated antibodies (Jackson ImmunoResearch Laboratories, Inc.) as described above.
Test [7] has as its target T3, ClpB protein. Conditions: ClpB-immunized mice.
Description: as §2, §3
The mark [8] stands for this setting: ClpB-immunized mice, last 10 days.
Setting [9] is: ClpB-immunized mice, α-MSH 100 μg/kg i.p.
Where [10] appears, read: open field, between study groups.

Turning to “ClpB: chaperone protein ClpB from E. Coli K12, SEQ ID NO: 1, 857 amino acids; recombinant protein (Delphi Genetics) used for immunization”, in test [1] (ClpB 50 μg per mouse i.p. together with adjuvant, C57Bl6 mice), the “body weight for a few days after injections” value is given as “lower”. Moreover, the “body weight vs controls” value in test [1] (ClpB-immunized mice, 4 weeks later) is “+5%”. For the same substance, in test [1] (setting [8]), the meal number result is listed as “did not change” and the meal size entry is listed as “increased”. Also, the “mean daily food intake as compared with other groups” value in test [1] (ClpB-immunized mice, last 10 days of the experiment) is on record as “+13%”. In test [1] (setting [9]), the “24 h food intake following i.p. injection of α-MSH” value is recorded as “not affected” and the “body weight following i.p. injection of α-MSH” value is recorded as “not affected”. Besides, the “time spent in the closed arms of the O-maze” value in test [2] (ClpB-immunized mice compared with all other groups) is given as “less time”. The “distance moved in the closed arms of the O-maze” value in test [2] (ClpB-immunized mice compared with controls) is on record as “shorter distance”. In test [2] (setting [10]), the “time spent in the open vs border areas” value was “did not significantly differ” and the total locomotor activity entry is on record as “did not significantly differ”. For the same substance, the “plasma levels of α-MSH IgM auto-Abs” value with α-MSH [3] (ClpB immunization study, between the groups) is reported as “did not significantly differ”. In addition, the “plasma levels of α-MSH-reactive IgG” value in the test with α-MSH [3] (ClpB-immunized mice) is reported as “Increased”. In test [4], the “plasma adrenocorticotropic hormone-reactive IgG” value was “No significant differences”. The “affinity of α-MSH-reactive IgG for α-MSH” value with α-MSH [5] was “lower affinities”. The “Western blot revealed with anti-α-MSH IgG” value in the test with anti-α-MSH IgG is reported as “showed a 96-kDa band”. In the test with ClpB protein [6], the “plasma anti-ClpB IgG levels” value is on record as “strong increase” and the “plasma levels of anti-ClpB IgG after adsorption with α-MSH” value was “significantly reduced”. The “affinity of anti-ClpB IgG” value with ClpB protein [7] was “lower affinities”.
